CN1CCN(C(=O)O[C@H]2c3nccnc3C(=O)N2c2ccc(Cl)cn2)CC1
solubility (mole fraction)
Settings	288.15 K	293.15 K	298.15 K	303.15 K	308.15 K	313.15 K	318.15 K	323.15 K	328.15 K
in acetone	0.0013	0.0015	0.0019	0.0023	0.0027	0.0032	0.0037	–	–
in ethanol	0.0002	0.0003	0.0004	0.0004	0.0005	0.0007	0.0009	0.001	0.0012

Source: BigSolDB 2.1
